From PMC8578332 (Scientific Reports, 2021) come the findings set out here.

Each structure is given as a SMILES string. Where a SMILES comes first, the peptide text is derived from it. Bridges are numbered along the chain shown (N, C = ends).

As usually defined, the IC50 is the concentration that inhibits the measured activity by half.

Sequence of human α7-containing nAChRs (P36544 23-502 limits assumed): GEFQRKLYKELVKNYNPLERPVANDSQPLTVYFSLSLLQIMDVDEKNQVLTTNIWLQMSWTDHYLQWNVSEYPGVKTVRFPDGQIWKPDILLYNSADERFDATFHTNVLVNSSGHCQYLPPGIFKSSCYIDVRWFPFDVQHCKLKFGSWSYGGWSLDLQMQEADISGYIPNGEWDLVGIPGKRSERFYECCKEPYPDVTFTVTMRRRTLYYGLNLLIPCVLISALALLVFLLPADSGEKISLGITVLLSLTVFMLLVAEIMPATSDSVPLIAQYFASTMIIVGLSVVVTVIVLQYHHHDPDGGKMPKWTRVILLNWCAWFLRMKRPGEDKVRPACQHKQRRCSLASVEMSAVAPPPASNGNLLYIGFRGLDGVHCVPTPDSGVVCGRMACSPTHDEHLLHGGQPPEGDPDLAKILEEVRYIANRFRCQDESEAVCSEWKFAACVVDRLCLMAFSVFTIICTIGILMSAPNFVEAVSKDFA

The assay has as its target human α7-containing nAChRs (Homo sapiens, UniProt P36544). The assay is described as follows: cell-based. It is filed as cell-based. The conditions noted are these: SEM.
`CC[C@H](C)[C@@H]1NC(=O)[C@@H]2CSSC[C@H](NC(=O)CN)C(=O)N[C@@H](CSSC[C@@H](C(N)=O)NC(=O)[C@H](CC(C)C)NC(=O)[C@H](CC(=O)O)NC(=O)[C@@H]3CCCN3C(=O)[C@H](CC(N)=O)NC(=O)[C@H](CC(N)=O)NC(=O)[C@H](CC(C)C)NC1=O)C(=O)N[C@@H](CO)C(=O)N[C@@H](C)C(=O)N[C@@H](CCCNC(=N)N)C(=O)N1CCC[C@H]1C(=O)N1CCC[C@H]1C(=O)N2` [gTxIA[∇A5 A10L]] (H-GCCSARPPCILNNPDLC-NH2; disulfide 2-9, 3-17): 18 ± 4 µM corresponded to half-maximal inhibition (IC50).
Take `CC[C@H](C)[C@@H]1NC(=O)[C@H](CC(N)=O)NC(=O)[C@@H]2CCCN2C(=O)[C@H](CC(N)=O)NC(=O)[C@H](CC(N)=O)NC(=O)[C@H](C(C)C)NC(=O)[C@H](CCCNC(=N)N)NC(=O)[C@@H]2CSSC[C@H](NC(=O)[C@@H](NC(=O)CNC(=O)[C@@H](N)CO)CSSC[C@@H](C(N)=O)NC1=O)C(=O)N[C@@H](CO)C(=O)N[C@@H](CC(N)=O)C(=O)N1CCC[C@H]1C(=O)N[C@@H](C)C(=O)N2` [rLsIA, reference compound] (H-SGCCSNPACRVNNPNIC-NH2; disulfide 3-17, 4-9): the IC50 was found to be 41 ± 3.4 µM.
For the compound `CC[C@H](C)[C@@H]1NC(=O)[C@@H]2CSSC[C@H](NC(=O)[C@@H](NC(=O)CN)CSSC[C@@H](C(N)=O)NC(=O)[C@H](CC(C)C)NC(=O)[C@H](CC(=O)O)NC(=O)[C@@H]3CCCN3C(=O)[C@H](CC(N)=O)NC(=O)[C@H](CC(N)=O)NC(=O)[C@H](CC(C)C)NC1=O)C(=O)N[C@@H](CO)C(=O)N[C@@H](C)C(=O)N[C@@H](CCCNC(=N)N)C(=O)N1CCC[C@H]1C(=O)N1CCC[C@H]1C(=O)N2` [rTxIA[∇A5 A10L]] (H-GCCSARPPCILNNPDLC-NH2; disulfide 2-17, 3-9), inhibition was half-maximal at 39 ± 10.3 µM (IC50).
Take `CC(C)[C@H](NC(=O)[C@@H]1CSSC[C@H](NC(=O)[C@@H](N)CO)C(=O)N[C@H]2CSSC[C@H](NC(=O)[C@H](C)NC(=O)[C@@H]3CCCN3C(=O)[C@H](CC(N)=O)NC(=O)[C@H](CCCNC(=N)N)NC(=O)[C@H](C)NC2=O)C(=O)N[C@@H](CCCNC(=N)N)C(=O)N[C@@H](Cc2c[nH]cn2)C(=O)N[C@@H](CC(N)=O)C(=O)N[C@@H](Cc2c[nH]cn2)C(=O)N2CCC[C@H]2C(=O)N1)C(N)=O` [rAusIA] (H-SCCARNPACRHNHPCV-NH2; disulfide 2-15, 3-9): the IC50 was 26 ± 5 µM.
The figure for `CC(C)[C@H](NC(=O)[C@@H]1CSSC[C@@H]2NC(=O)[C@@H](NC(=O)[C@@H](N)CO)CSSC[C@H](NC(=O)[C@H](C)NC(=O)[C@@H]3CCCN3C(=O)[C@H](CC(N)=O)NC(=O)[C@H](CCCNC(=N)N)NC(=O)[C@H](C)NC2=O)C(=O)N[C@@H](CCCNC(=N)N)C(=O)N[C@@H](Cc2c[nH]cn2)C(=O)N[C@@H](CC(N)=O)C(=O)N[C@@H](Cc2c[nH]cn2)C(=O)N2CCC[C@H]2C(=O)N1)C(N)=O` [gAusIA] (H-SCCARNPACRHNHPCV-NH2; disulfide 2-9, 3-15) is 47 ± 6.7 µM.
In turn, `CC[C@H](C)[C@@H]1NC(=O)[C@@H]2CSSC[C@H](NC(=O)CN)C(=O)N[C@@H](CSSC[C@@H](C(N)=O)NC(=O)[C@H](CC(C)C)NC(=O)[C@H](CC(=O)O)NC(=O)[C@@H]3CCCN3C(=O)[C@H](CC(N)=O)NC(=O)[C@H](CC(N)=O)NC(=O)[C@H](CC(C)C)NC1=O)C(=O)N[C@@H](CO)C(=O)N[C@@H](CCCNC(=N)N)C(=O)N1CCC[C@H]1C(=O)N1CCC[C@H]1C(=O)N2` [gTxIA [A10L], reference compound] (H-GCCSRPPCILNNPDLC-NH2; disulfide 2-8, 3-16) registered an IC50 of 0.5 ± 0.036 µM.
Then `CC[C@H](C)[C@@H]1NC(=O)[C@@H]2CSSC[C@H](NC(=O)[C@@H](NC(=O)CN)CSSC[C@@H](C(N)=O)NC(=O)[C@H](CC(C)C)NC(=O)[C@H](CC(=O)O)NC(=O)[C@@H]3CCCN3C(=O)[C@H](CC(N)=O)NC(=O)[C@H](CC(N)=O)NC(=O)[C@H](CC(C)C)NC1=O)C(=O)N[C@@H](CO)C(=O)N[C@@H](CCCNC(=N)N)C(=O)N1CCC[C@H]1C(=O)N1CCC[C@H]1C(=O)N2` [rTxIA [A10L], reference compound] (H-GCCSRPPCILNNPDLC-NH2; disulfide 2-16, 3-8), with 6 ± 0.123 µM; and `CC[C@H](C)[C@@H]1NC(=O)[C@H](CC(N)=O)NC(=O)[C@@H]2CCCN2C(=O)[C@H](CC(N)=O)NC(=O)[C@H](CC(N)=O)NC(=O)[C@H](C(C)C)NC(=O)[C@H](CCCNC(=N)N)NC(=O)[C@@H]2CSSC[C@H](NC(=O)CNC(=O)[C@@H](N)CO)C(=O)N[C@@H](CSSC[C@@H](C(N)=O)NC1=O)C(=O)N[C@@H](CO)C(=O)N[C@@H](CC(N)=O)C(=O)N1CCC[C@H]1C(=O)N[C@@H](C)C(=O)N2` [gLsIA, reference compound] (H-SGCCSNPACRVNNPNIC-NH2; disulfide 3-9, 4-17), with 0.3 ± 0.063 µM.
